From PubChem BioAssay (NCI)
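Exposure lasted 48 hours, with cells grown in 96-well plates and compounds tested at five concentrations. GI50 marks 50% less growth. TGI is the concentration that stops growth completely.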

Assays:
Test in all cases: growth of human tumour cells (NCI), 48 h
ACHN renal = test system: ACHN renal
HOP-92 NSCLC = test system: HOP-92 NSCLC
HT29 colon = test system: HT29 colon
KM12 colon = test system: KM12 colon
MDA-MB-231 breast = test system: MDA-MB-231 breast
NCI-H23 lung = test system: NCI-H23 lung
OVCAR-5 ovarian = test system: OVCAR-5 ovarian
RPMI-8226 leukemia = test system: RPMI-8226 leukemia
SK-MEL-2 melanoma = test system: SK-MEL-2 melanoma
SR leukemia = test system: SR leukemia

## COc1cc2c3c(c4c5ccccc5[nH]c4c2c(OC)c1OC)C(=O)N(CCN1CCCCC1)C3=O
ACHN renal
  GI50: 0.4 µM
  TGI: 1.6 µM
HOP-92 NSCLC
  GI50: 1.3 µM
  TGI: 5.21 µM
HT29 colon
  GI50: 0.417 µM
  TGI: 1.88 µM
KM12 colon
  GI50: 1.02 µM
  TGI: 2.59 µM
MDA-MB-231 breast
  GI50: 1.47 µM
  TGI: 3.08 µM
NCI-H23 lung
  GI50: 1.12 µM
  TGI: 2.68 µM
OVCAR-5 ovarian
  GI50: 1.29 µM
  TGI: 3.05 µM
RPMI-8226 leukemia
  GI50: 1.06 µM
  TGI: 4.17 µM
SK-MEL-2 melanoma
  GI50: 3.17 µM
  TGI: 11.2 µM

## COc1ccc(C(=O)O)c(Cc2ccc3ccccc3c2)c1
ACHN renal
  TGI: > 100 µM
HOP-92 NSCLC
  TGI: > 100 µM
HT29 colon
  TGI: > 100 µM
KM12 colon
  TGI: > 100 µM
NCI-H23 lung
  TGI: > 100 µM
OVCAR-5 ovarian
  TGI: > 100 µM
RPMI-8226 leukemia
  TGI: > 100 µM
SK-MEL-2 melanoma
  TGI: > 100 µM
SR leukemia
  TGI: > 100 µM

## Cc1cc2c(c(N)c1C)C(=O)c1ccccc1C2=O
ACHN renal
  TGI: > 100 µM
HOP-92 NSCLC
  TGI: 58.9 µM
HT29 colon
  TGI: > 100 µM
KM12 colon
  TGI: > 100 µM
OVCAR-5 ovarian
  TGI: > 100 µM
RPMI-8226 leukemia
  TGI: > 100 µM
SK-MEL-2 melanoma
  TGI: > 100 µM
SR leukemia
  TGI: > 100 µM

## CC1CCC23COC(=O)C2C(O)CCC3C1(C)CC(O)c1ccoc1 (configuration not stated)
ACHN renal
  TGI: > 100 µM
HOP-92 NSCLC
  TGI: > 100 µM
HT29 colon
  TGI: > 100 µM
KM12 colon
  TGI: > 100 µM
NCI-H23 lung
  TGI: > 100 µM
OVCAR-5 ovarian
  TGI: > 100 µM
SK-MEL-2 melanoma
  TGI: > 100 µM

## COC(=O)NN1C(C)=C(C(=O)OC)C2(CCOC2=O)C1(C)O (configuration not stated)
ACHN renal
  TGI: > 100 µM
HOP-92 NSCLC
  TGI: > 100 µM
HT29 colon
  TGI: > 100 µM
KM12 colon
  TGI: > 100 µM
NCI-H23 lung
  TGI: > 100 µM
OVCAR-5 ovarian
  TGI: > 100 µM
RPMI-8226 leukemia
  TGI: > 100 µM
SK-MEL-2 melanoma
  TGI: > 100 µM

## CCN(CC)CC(O)C1CCC(c2ccccc2)CC1 (configuration not stated)
ACHN renal
  TGI: 57.5 µM
HOP-92 NSCLC
  TGI: 86.9 µM
HT29 colon
  TGI: 47.7 µM
KM12 colon
  TGI: 71.3 µM
MDA-MB-231 breast
  TGI: 37.6 µM
NCI-H23 lung
  TGI: > 100 µM
OVCAR-5 ovarian
  TGI: 88.9 µM
RPMI-8226 leukemia
  TGI: 39 µM
SK-MEL-2 melanoma
  TGI: 37.4 µM

## O=[N+]([O-])c1ccc(-c2cn(-c3ccc(Cl)cc3)cn2)cc1
ACHN renal
  TGI: > 100 µM
HT29 colon
  TGI: > 100 µM
KM12 colon
  TGI: > 100 µM
MDA-MB-231 breast
  TGI: > 100 µM
NCI-H23 lung
  TGI: > 100 µM
OVCAR-5 ovarian
  TGI: > 100 µM
RPMI-8226 leukemia
  TGI: > 100 µM
SK-MEL-2 melanoma
  TGI: > 100 µM
SR leukemia
  TGI: > 100 µM

## COc1cc2c3c(n(CCCCl)c(=O)c2cc1OC)-c1ccc(C#N)cc1C3=O
HOP-92 NSCLC
  GI50: 16.2 µM
  TGI: 56.8 µM
HT29 colon
  GI50: > 100 µM
  TGI: > 100 µM
KM12 colon
  GI50: > 100 µM
  TGI: > 100 µM
MDA-MB-231 breast
  GI50: 1.67 µM
  TGI: 10.2 µM
NCI-H23 lung
  GI50: 8.38 µM
  TGI: 20.9 µM
OVCAR-5 ovarian
  GI50: 33.6 µM
  TGI: > 100 µM
RPMI-8226 leukemia
  GI50: 3.97 µM
  TGI: > 100 µM
SK-MEL-2 melanoma
  GI50: 4.93 µM
  TGI: 24.5 µM

## COc1ccc(Nc2ncccc2C(=O)NCc2cn(Cc3cccc(Oc4ccccc4)c3)nn2)cc1
ACHN renal
  GI50: 4.79 µM
  TGI: > 100 µM
HOP-92 NSCLC
  GI50: 5.67 µM
  TGI: > 100 µM
HT29 colon
  GI50: 3.66 µM
  TGI: 15.4 µM
KM12 colon
  GI50: 3.43 µM
  TGI: > 100 µM
MDA-MB-231 breast
  GI50: 3.09 µM
  TGI: 8.62 µM
NCI-H23 lung
  GI50: 3.45 µM
  TGI: > 100 µM
OVCAR-5 ovarian
  GI50: 4.23 µM
  TGI: > 100 µM
RPMI-8226 leukemia
  GI50: 4.84 µM
  TGI: > 100 µM
SK-MEL-2 melanoma
  GI50: 3.66 µM
  TGI: > 100 µM
